This passage reports TGI and GI50 results from PubChem BioAssay (NCI).

Among the test systems are LOX IMVI melanoma; HCT-15 colon; ACHN renal; SW-620 colon; UACC-62 melanoma; OVCAR-4 ovarian; EKVX NSCLC; MALME-3M melanoma; PC-3 prostate; A498 renal; A549 NSCLC.
What all share (assay): DTP human tumour cell line panel, 48 h

The structures appear in SMILES notation.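 Exposure lasted 48 hours, with cells grown in 96-well plates and compounds tested at five concentrations. GI50 marks 50% less growth. TGI is the concentration that stops growth completely.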 *1 amine or outer side, *2 acyl side, *3 side chain or, on linkers, in order; H or OH if unused. Where a SMILES comes first, the peptide text is derived from it. Bridges are numbered along the chain shown (N, C = ends). Roman numbers before positions name the chains, in order. X23 = CCCCCCCCCCCCCCC(=O)NC(CCCCN[*:2])C(=O)CN1CCCC1C(=O)[*:1] Some results are limits rather than exact numbers.

The TGI is the concentration giving total growth inhibition. Low values mean greater sensitivity of the cells, high ones lower sensitivity of the cells. `CN(CCNC(=O)c1cn(C)c2c1ccc1cc(Cl)ccc12)CCNC(=O)c1cn(C)c2c1ccc1cc(Cl)ccc12`: the TGI came out at 34 µM in the test on LOX IMVI melanoma; 3.3 µM in the test with HCT-15 colon; 9.73 µM in the test on ACHN renal; 40.5 µM in the test on SW-620 colon; 10.8 µM in the test with UACC-62 melanoma; 3.68 µM with OVCAR-4 ovarian. The TGI was found to be 4.04 µM in the test with EKVX NSCLC, 4.85 µM with MALME-3M melanoma, 11.5 µM with PC-3 prostate and 14.5 µM in the test with A498 renal.
Consider `OCCSCc1cc(Cl)cc(Cl)c1O`, for which the concentration for total growth inhibition (TGI) in the test with LOX IMVI melanoma, with HCT-15 colon, in the test on ACHN renal, in the test on SW-620 colon, in the test on UACC-62 melanoma and with OVCAR-4 ovarian was greater than 100 µM each time. Also, the TGI with EKVX NSCLC, with MALME-3M melanoma, with PC-3 prostate, in the test with A498 renal and in the test on A549 NSCLC was greater than 100 µM each time.
Regarding `O=C1CSc2sc(=S)sc2S1`, the TGI in the test with LOX IMVI melanoma, with HCT-15 colon, in the test on SW-620 colon, in the test on UACC-62 melanoma, in the test with OVCAR-4 ovarian and with EKVX NSCLC was greater than 100 µM in each case. The TGI was greater than 100 µM with MALME-3M melanoma, greater than 78.6 µM in the test on A498 renal and greater than 100 µM in the test with A549 NSCLC.
Consider `Cc1cc(O)c2cc3c(O)c(O)ccc3cc2c1`, for which the TGI is greater than 42.3 µM with LOX IMVI melanoma; 5.91 µM in the test on HCT-15 colon; 5.71 µM in the test with ACHN renal; greater than 28.9 µM in the test with SW-620 colon; 22.6 µM in the test with UACC-62 melanoma; 5.53 µM in the test on OVCAR-4 ovarian. For the same compound, the concentration for total growth inhibition (TGI) is 24.7 µM with EKVX NSCLC; 3.52 µM in the test with MALME-3M melanoma; 19.3 µM in the test on PC-3 prostate; 16.1 µM with A498 renal; greater than 26.3 µM in the test on A549 NSCLC.
For the compound `CC(C)(C)OC(=O)N1CCCC1C(=O)NCCNc1ccc(NCCNC(=O)C2CCCN2C(=O)OC(C)(C)C)c2c1C(=O)c1ccccc1C2=O` (stereo not drawn), the TGI was found to be 26.3 µM in the test with LOX IMVI melanoma; 26.8 µM in the test on HCT-15 colon; 31.6 µM with ACHN renal; 29.8 µM in the test with SW-620 colon; 23.8 µM with UACC-62 melanoma; 51.4 µM in the test with OVCAR-4 ovarian. Besides, the TGI with EKVX NSCLC is greater than 100 µM; in the test with MALME-3M melanoma, 33 µM; in the test with PC-3 prostate it was 26.4 µM; in the test with A549 NSCLC, 33.9 µM.
Consider `O=C1NC2(NC(=O)C1=O)Nc1ccccc1S2`, for which the TGI is 37.8 µM in the test on LOX IMVI melanoma; greater than 59.5 µM in the test on HCT-15 colon; greater than 76.1 µM in the test on ACHN renal; greater than 46.1 µM in the test with SW-620 colon; 63.8 µM in the test on UACC-62 melanoma; greater than 100 µM in the test with OVCAR-4 ovarian. In addition, the TGI with EKVX NSCLC, with MALME-3M melanoma, with A498 renal and with A549 NSCLC was greater than 100 µM in each case.
As for `Cc1ccc(NC(=O)CC(=O)n2nc(-c3ccccc3)c(N=Nc3ccccc3C(=O)O)c2-c2ccccc2)cc1`, the TGI in the test with LOX IMVI melanoma, in the test with HCT-15 colon, in the test with ACHN renal, in the test on SW-620 colon, with UACC-62 melanoma and in the test on OVCAR-4 ovarian was greater than 100 µM in each case. In addition, the TGI with EKVX NSCLC, in the test on MALME-3M melanoma and in the test on A549 NSCLC was greater than 100 µM in each case.
As usually defined, the GI50 is the concentration at which growth is held to half of that of the control. As for `Nc1nccc2c1ncn2C1C=C(CO)C(O)C1O` (stereo not drawn), the GI50 in the test on LOX IMVI melanoma was 335 µM; in the test on HCT-15 colon, 226 µM; in the test with SW-620 colon, 0.775 µM; with UACC-62 melanoma, 6.88 µM; with OVCAR-4 ovarian, greater than 1000 µM; with A549 NSCLC, greater than 1000 µM. Besides, the TGI in the test with LOX IMVI melanoma, with HCT-15 colon, in the test with SW-620 colon, in the test on UACC-62 melanoma, in the test on OVCAR-4 ovarian and in the test on A549 NSCLC was greater than 1000 µM throughout.
Turning to `O=C1/C(=C/c2ccc3c(c2)OCO3)Sc2scc(-c3ccc(O)c(O)c3)[n+]21`, the TGI with HCT-15 colon is 3.61 µM; in the test on ACHN renal it was 3.94 µM; in the test on UACC-62 melanoma, 8.28 µM; with OVCAR-4 ovarian it was 14 µM; in the test with EKVX NSCLC, 8.25 µM; in the test on PC-3 prostate, 16.2 µM. Moreover, in the test on A549 NSCLC, the TGI is 46.3 µM.
For `CCCCCCCCCCCCCCC(=O)NC(CCCCNC(=O)C1CCCN1C(=O)C(CCCCN)NC(=O)C(CCCCN)NC(=O)C(CCCCN)NC(=O)C(CCCNC(=N)N)NC(=O)C(CCCCN)NC(=O)C(N)C(C)C)C(=O)CN1CCCC1C(=O)NCC(=O)NC(Cc1ccccc1)C(=O)N1CCCC1C(=O)NC(CO)C(=O)NC(Cc1ccc(O)cc1)C(=O)NC(CCCCN)C(=O)NC(CC(C)C)C(=O)NC(CCCNC(=N)N)C(=O)N1CCCC1C(=O)NCC(N)=O` (stereo not drawn) (I: GFPSYKLRPG-NH2 / II: H-VKRKKKP; linker I:N-II:C via X23; configuration not given here), the GI50 with SW-620 colon is 30 µM; in the test on OVCAR-4 ovarian, 28.7 µM; with EKVX NSCLC, 20.3 µM; with A498 renal, 40.5 µM; with A549 NSCLC, 19.2 µM. For the same compound, the TGI is greater than 100 µM with SW-620 colon; 97.1 µM with OVCAR-4 ovarian; 58.7 µM with EKVX NSCLC; greater than 100 µM in the test on A498 renal; 43.1 µM in the test with A549 NSCLC.
Consider `O=[P+](O)c1cccs1`, for which the TGI in the test with LOX IMVI melanoma, in the test with HCT-15 colon, in the test with ACHN renal, in the test on SW-620 colon, with UACC-62 melanoma and in the test with EKVX NSCLC was greater than 100 µM throughout. Moreover, the TGI with A498 renal and in the test on A549 NSCLC was greater than 100 µM in each case.
Regarding `CCc1cccc(C(C)C)c1NC1=C([n+]2ccc(C)cc2)C(=O)c2ccccc2C1=O`, the TGI with LOX IMVI melanoma is 3.39 µM; with HCT-15 colon, 13.9 µM; with ACHN renal, 1.68 µM; in the test with SW-620 colon, greater than 100 µM; with UACC-62 melanoma it was 4.22 µM; in the test with OVCAR-4 ovarian it was 10.9 µM. Further, the TGI in the test on EKVX NSCLC turned out to be 5.16 µM; in the test with MALME-3M melanoma, 6.91 µM; in the test with PC-3 prostate, 8.91 µM; in the test on A498 renal, 8.79 µM; with A549 NSCLC it was 22.5 µM.
